Experimental data published in paper PMC5859730, “Dual targeting of the cancer antioxidant network with 1,4-naphthoquinone fused Gold(I) N-heterocyclic carbene complexes” (Chemical Science, 2017).
Like-named read-outs stand apart in the source and are kept apart here.

Assays:
[1] = tested on: A549 lung cancer cells; assay: Cell proliferation (MTT assay) in A549 lung cancer cells; assay type: cell-based, human
Method: To gauge the ability of each complex to inhibit cancer cell growth, A549 lung cancer cells were treated with 1–3, 4[H][Cl], doxorubicin, and auranofin in a dose responsive manner. Cellular vitality (i.e., mitochondrial reductase activity) was then quantified colorimetrically post treatment using 3-(4,5-dimethylthiazol-2-yl)-2,5-diphenyltetrazolium bromide (MTT assay) (Table 2, Fig. 5).
(§1) Biological preparations and assays
(§2) Experimental compound preparation. Stock solutions of complexes 1–3, 4[H][Cl], auranofin (Tocris Bioscience 4600), and doxorubicin (Tocris Bioscience 2252) were dissolved in DMSO (2.5–10 mM, depending on the compound and its solubility), aliquoted, and stored at -80 °C prior to use.
(§3) Biological Materials and Cell Lines. Cell lines were obtained from the ATCC (A549 and PC-3) and Prof.
Zahid Siddik at M.D. Anderson Cancer Center (A2780 and A2780CP). Cell culture plastic ware (i.e. T-75 flasks, treated 6-well plates, treated 96-well plates, and cell scrapers) were obtained from Fisher Scientific. Cell were cultured in RPMI 1640 culture medium (+2mM glutamine, +25mM HEPES, Corning 10041cv) supplemented with 10% heat-inactivated fetal bovine serum (RMBIO FBS-BBT) and 1X penicillin-streptomycin (Sigma p4333). Unless otherwise noted, incubators were set to 37°C and 5% CO2.
Trypsin (HyClone SH30236.01) and 1X Phosphate Buffered Saline (HyClone SH30258.02, diluted in autoclaved deionized water) were utilized for general cell line maintenance and harvesting. Trace Metal […]
Cell Proliferation Studies. Cells were harvested and seeded into 96-well culture plates (Costar 07-200-90) in 100µL of culture media. They were allowed to incubate overnight at 37 °C in the presence of 5% CO2. […]
and PC-3 at 2000 cells/well. […]
were made. To each well of a 96 well plate was added 100 µL of the appropriate solution. After a total of three days, a […] aliquot of 3 mg/mL tetrazolium dye, 3-(4,5-dimethylthiazol-2-yl)-2,5-diphenyltetrazolium bromide (Alfa Aesar L11939) was added to each well, followed by a 4 hr incubation period at 37 °C. The medium was then removed, the resulting formazan was dissolved in […] DMSO and the respective absorbances were measured at 560–650 nm using a microplate reader (Molecular Devices, Sunnyvale, CA). Absorbance values were corrected for background and then normalized to wells containing untreated cells to allow for plate-to-plate comparisons. The data are shown as mean inhibition of proliferation or growth as a percentage of control cells and are from 2–3 replicate experiments. Resulting dose response curves were subjected to linear regression analysis (Origin by OriginLab, Inc.) for determination of IC50 values.

[2] = tested on: A549 cancer cells; assay: Confocal microscopy of ROS localisation; assay type: cell-based, human; details: A549, 1.25 μM, 4 h
Method: To further elucidate the subcellular loci of ROS accentuation, confocal microscopy was employed to fluorescently image A549 cancer cells treated with vehicle (DMSO) and 1.25 μM complex 1 (Fig. 7d). All cells were selectively stained for visualization of ROS accentuation (green, CM-H2DCFDA), mitochondria (red, Mitotracker Red), and nuclei (blue, Hoechst).
Serum Protein Binding Studies.
aliquots were stored at -80°C.
in an Edvotek microcentrifuge. […] Samples
Detection of ROS by Flow Cytometry.
cells were treated with vehicle only.
g) at 5 °C. […] The pellet was
Control samples of unstained cells,
overnight. […] Post incubation, the media was
After incubation, the dye-
Cells were then imaged fluorescently
Lipoate Inhibition Assays.
well culture plates. […] The next day, appropriate
were added to each well. […] Afterwards, the liquid was then

[3] = tested on: thioredoxin reductase (TrxR); details: A549, 0.1–0.6 μM, 6 h exposure, lipoate reduction over 180 min
Method: Briefly, plateau phase A549 cells were exposed to variable doses of complexes 1, 3, 4[H][Cl], a 2 : 1 molar ratio of 4[H][Cl] and 5 (cocktail), auranofin, and doxorubicin for 6 h. Post treatment, the live cells were monitored colorimetrically over 180 min for their ability to reduce lipoate (Fig. 8a).

[4] = tested on: 2780CP ovarian; assay: Cell proliferation (MTT assay) in 2780CP ovarian cells; assay type: cell-based, human; details: isogenic to A2780, multi-drug resistance; Table 3
Method: Further anti-proliferation studies were carried out with complex 1 and its naphthoquinone component 4[H][Cl] using the following cell lines: A2780 ovarian (a wt-p53 cell line sensitive to platinum treatment), 2780CP ovarian (isogenic to A2780 but expressing multi-drug resistance (MDR)), and PC-3 prostate (p53 null) (Table 3).
as §1, §2, §3
Zahid Siddik at M.D. Anderson Cancer Center (A2780 and A2780CP). Cell culture plastic ware (i.e. T-75 flasks, treated 6-well plates, treated 96-well plates, and cell scrapers) were obtained from Fisher Scientific. […]
were made. […] The medium was then removed, the resulting formazan was dissolved in […] DMSO and the respective absorbances were measured at 560–650 nm using a microplate reader (Molecular Devices, Sunnyvale, CA). Absorbance values were corrected for background and then normalized to wells containing untreated cells to allow for plate-to-plate comparisons. […]

With `Cc1cc(C)c(-n2c3c(n(-c4c(C)cc(C)cc4C)[c]2=[Au-]=[c]2n(-c4c(C)cc(C)cc4C)c4c(n2-c2c(C)cc(C)cc2C)C(=O)c2ccccc2C4=O)C(=O)c2ccccc2C3=O)c(C)c1.[Cl][Ag-][Cl]` [Complex 1, [bis(1,3-dimesityl-4,5-naphthoquino-imidazol-2-ylidene)-gold(I)] [silver(I)dichloride]] the “Fold difference relative to 1” value ([1]; A549, ratio of IC50 to that of 1 (Table 2)) was 1, the IC50 ([1]; A549 lung cancer cells, MTT, 72 h, read-out: IC50) was 73 nM and the IC50 ([1]; Table 3, error = standard error from the mean, read-out: IC50 A549 lung) was 73 ± 16 nM. For the same compound, the “Subcellular locus of ROS accentuation” value [2] was “ROS accentuation is arising from mitochondria”, the “Inhibition of TrxR at low concentrations” value [3] was “inhibition of TrxR was apparent” and the IC50 [4] was 54 ± 6 nM.
